Assay results from PMC6891598, “Application of N-Dodecyl L-Peptide to Enhance Serum Stability while Maintaining Inhibitory Effects on Myometrial Contractions Ex Vivo” (Molecules, 2019).
Entries after “also recorded” stand apart in the source; their conditions may differ. Residues, ends and D or L forms follow the SMILES beside them.

How the values were obtained:
[1] = tested on: murine myometrial tissue (PGF2α-induced contractions; FP); assay: ex vivo mouse myometrial tissue contraction assay (PGF2α-induced); parameters: species or system mouse (CD-1); conditions: post-partum CD-1 mouse myometrial strips, Krebs buffer pH 7.4, 37 °C, 20 min pretreatment with peptide at two concentrations, then PGF2α; 4–6 experiments per group, means ± SEM, t-test, p < 0.05 vs vehicle
Experimental: (§1) All the peptides were initially tested in an ex vivo mouse myometrial tissue contraction assay. Contractile activity was measured on tissue that was harvested post-partum and treated with prostaglandin F2α (PGFα) alone (control) or in the presence of peptides L-4b-4g, L-7, and L-8. […] Mean tension induced by KCl (as a positive control) was not affected by L-4d.
Pregnant CD-1 mice (16-17 days gestation, term 19 days) were obtained from Charles River Inc. and used according to a protocol of the Animal Care Committee of Hôpital Sainte-Justine according to the principles of the Guide for the Care and Use of Experimental Animals of the Canadian Council on Animal Care. The animals were maintained on standard laboratory chow under a 12:12 light:dark cycle and allowed free access to chow and water.
(§2) The uterus from the CD-1 mouse was obtained from the animal immediately after term delivery under anesthesia (2.5% isoflurane). Briefly, a midline abdominal incision was made and the uterine horns were rapidly excised, cleansed carefully of the surrounding connective tissues, and removed. Longitudinal myometrial strips (2 to 3 mm wide and 1 cm long) were dissected free from the uterus and mounted isometrically in organ tissue baths. The initial tension was set at 2 g. The tissue baths contained 20 mL of Krebs buffer of the following composition (in mM): 118 NaCl, 4.7 KCl, 2.5 CaCl2, 0.9 MgSO4, 1 KH2PO4, 11.1 glucose, and 23 NaHCO3 (pH 7.4). The buffer was equilibrated with 95% oxygen/5% carbon dioxide at 37 °C. Isometric tension was measured by a force transducer and recorded by a BIOPAC data acquisition system (BIOPAC MP150, Montreal, PQ, Canada). Experiments were begun after 1 h equilibration. Mean tension of spontaneous contractions was measured using a BIOPAC digital polygraph system (AcqKnowledge); the same parameters were also determined after addition of PGF2α in the presence or the absence of a 20 min-pretreatment with different FP inhibitors. At the start of each experiment, mean tension of spontaneous myometrial contractions was considered as a reference response. Changes in mean tension (g) were expressed as percentages of the initial reference response (% of baseline).
At the start of each experiments, mean tension of spontaneous myometrial contractions was considered as a reference response. Increase in mean tension (%) was expressed as percentages of (X/Y)-100, where X is the change in mean tension (g) induced by PGF2α and Y is the initial reference response (g). Data are representative of 4–6 experiments per treated group. All results are expressed as means ± SEM and were compared by Independent t-tests. Statistical tests were performed with GraphPad Prism 4.3 software and p < 0.05 was considered statistically significant.

[2] = tested on: murine myometrial tissue (KCl-induced tension); assay: mean tension induced by KCl (positive control) in mouse myometrial tissue; parameters: species or system mouse (CD-1); conditions: post-partum mouse myometrial tissue
Experimental: as §1
as §2, with “The tissue baths contained 20 mL of Krebs buffer of the following composition (in mM): 118 NaCl, 4.7 KCl, 2.5 CaCl2, 0.9 MgSO4, 1 KH2PO4, 11.1 glucose, and 23 NaHCO3 (pH 7.4). The buffer was equilibrated with 95% oxygen/5% carbon dioxide at 37 °C.” left out, “Experiments were begun after 1 h equilibration.” left out, “At the start of each experiment, mean tension of spontaneous myometrial contractions was considered as a reference response.” left out

[3] = serum stability study (mouse serum/plasma, MS/MS); assay type: in vitro ADME; conditions: mouse plasma (method: serum), 37 °C, incubation up to 2 hours, LC-MS/MS, internal standard L-4f
Experimental: Peptide L-4d was further examined for stability in serum and compared to L-PDC31. The two peptides were incubated at 37 °C in mouse plasma. Aliquots were removed at different time intervals and analyzed by mass spectrometry (MS/MS) to detect remaining amount of peptide (Figure 3).
Serum was […] and kept on ice throughout the procedure. Two blanks were prepared by adding 5 µL of DMSO to 95 µL of serum. These were incubated for 2 h and submitted to the same treatment as the other samples. Two series of vials containing 95 µL of serum were prepared and spiked with either 5 µL of L-PDC31 [0.4 mM] or L-4d [0.4 mM], and incubated for 120, 60, 30, 15, 10 and 5 min, respectively, after which 100 µL of 4% phosphoric acid was added. Two vials were also spiked with 5 µL L-PDC31 and L-4d, respectively, and immediately treated with phosphoric acid (time = 0 min). The vials were incubated for 5 min at 95 °C, cooled on ice for 2 min, treated with 600 µL of cold MeCN containing L-4f (0.02 mM) as internal standard, and incubated at –20 °C overnight. After the incubation period, the vials were vortexed for 2 min and centrifuged at 4 °C for 15 min. The supernatant was transferred into LC-MS vials and analyzed.
Results were expressed as: (AN/IS/AN0/IS0)∗100
AN and IS refer, respectively, to the analyte and internal standard MS signals. Both values are compared with initial injection at which time AN0 and IS0 were not incubated.

[4] = tested on: LPS-induced preterm delivery in pregnant CD-1 mice; assay: LPS-induced mouse preterm birth (PTB) model; assay type: in vivo, mouse (CD-1); conditions: gestational day 16, LPS 10 μg/animal i.p., L-4d 20 mg/day/animal by s.c. osmotic pump after 0.1 mg/animal i.p. bolus, n = 5 (saline n = 4)
Experimental: (§3) The ability of peptide L-4d to delay labor in vivo was next tested in mice near term and treated with lipopolysaccharide (LPS) Escherichia coli endotoxin, as a pathogen associated molecular pattern, which is known to promote a general inflammatory state resulting in prostaglandin synthesis and induced premature delivery. Following LPS injection into mice (n = 4–5) at gestational day 16, all the animals tested delivered within 12−24 h.
Timed-pregnant CD-1 mice at 16 days gestation (normal term is 19.2 days) were anesthetized with isoflurane (2%). Primed osmotic pumps (Alzet pump, Alzet, Cupertino, CA) containing either saline (n = 4) or compound L-4d (20 mg/day/animal, n = 5) were respectively subcutaneously implanted on the backs of the animals; infusion of peptide was immediately preceded by bolus injection of peptide (0.1 mg/animal intraperitoneally). Within 15 min after placement of the pumps, animals were injected with lipopolysaccharide (LPS) Escherichia coli endotoxin (10 μg/animal intraperitoneally) to mimic the inflammatory/infectious component of human preterm labor. Animals were inspected every hour for the first 18 h and every 2 h thereafter to document the timing of birth. Results are expressed as percentages of animals delivered following the injection of LPS [57]. […]

[5] = tested on: murine myometrial tissue (PGF2α-induced contractions; FP); conditions: cited from earlier work
Description: Moreover, addition of the dodecyl chain enhanced plasma stability.

[6] = tested on: LPS-induced preterm delivery in pregnant CD-1 mice; conditions: cited from earlier work
Experimental: as §3

[7] = tested on: prostaglandin F2α receptor (FP); conditions: FP inhibition, cited from earlier work
Experimental: The development of PDC31 originated from a library of sequences based on the second extracellular loop of FP. Short lead peptides were analyzed initially using in vitro and ex vivo analyses. […] Moreover, addition of the dodecyl chain enhanced plasma stability.

[8] = tested on: intrauterine pressure and pain in women with primary dysmenorrhea; conditions: phase Ib; cited from earlier work
Description: The prostaglandin F2α receptor (FP) is a promising target for delaying labor because of its relevant involvement in parturition. At the beginning of labor and preterm labor, FP expression increases. […] Targeting FP, the tocolytic prototype PDC31 is currently undergoing clinical trials.

Row | Molecule | effect on PGF2α-induced contractions (mean tension) of myometrial tissue [1] | effect on mean tension induced by KCl (positive control) [2] | stability in mouse plasma, in words [3] | ability to delay labor (time of delivery) in LPS-induced PTB model [4] | effect on spontaneous and PGF2α-induced contractions in postpartum mice myometrium [5] | ability to delay labor in the PTB model [6] | efficacy [7] [%] | IC50 ([7]; read-out: potency (IC50)) [nM] | safety and effect on intrauterine pressure and pain [8]
1 | CCCCCCCCCCCCN[C@H](C(=O)N[C@@H](CC(C)C)C(=O)NCC(=O)N[C@@H](Cc1c[nH]cn1)C(=O)N[C@@H](CCCNC(N)=O)C(=O)N[C@@H](CC(=O)O)C(=O)N[C@@H](Cc1ccc(O)cc1)C(=O)N[C@@H](CCCCN)C(=O)O)[C@@H](C)CC [L-4d, N-Dodecyl-Ile-Leu-Gly-His-Cit-Asp-Tyr-Lys-OH] (HELM PEPTIDE1{[CCCCCCCCCCCCN[C@H](C(=O)[*:2])[C@@H](C)CC].L.G.H.[Cit].D.Y.K}$$$$V2.0) | significant reduction of contractions; also recorded: able to reduce uterine contractions induced by PGF2α; also recorded: significant reduction of PGF2α-induced contractility | not affected | still present after 2 hours of incubation | unable to exhibit a statistically significant reduction in the time of delivery; also recorded: failed to prolong labor in vivo; also recorded: inactive in vivo; also recorded: no significant ability to delay labor | – | – | – | – | –
2 | H-ile-leu-Gly-his-cit-asp-tyr-lys-OH [PDC31] | – | – | – | – | reduce both the strength and length of spontaneous and PGF2α-induced contractions | delay labor | > 85 | 13 | safe in reducing intrauterine pressure and pain associated with excessive uterine contractility
